Organism: Rattus norvegicus
Assay: Open TG-GATES - Regimen: Single
Type: toxicity, organism-based, Sprague-Dawley
Design: regimen Single, gender Male, age 6 weeks
Details: in vivo, po, 0 mg/kg, route gavage, dose level Control; for APTT / Bas / Eos / Fbg / Hb / Ht / Lym / MCH / MCHC / MCV / Mono / Neu / PT / Plat / RBC / Ret / WBC: tissue Blood; for KIDNEY_L / KIDNEY_R / KIDNEY_TOTAL: tissue Kidney; for LIVER: tissue Liver; for A/G / ALP / ALT / AST / BUN / CRE / Ca / Cl / DBIL / GLC / IP / K / LDH / Na / PL / RALB / TBIL / TC / TG / TP / gamma-GTP: tissue Plasma

## CN/C(=N/CCSCc1nc[nH]c1C)NC#N [CIMETIDINE]
3 h
  TERMINAL_BW: 213.9 g
  APTT: 18.4 s
  Bas: 0%
  Eos: 1%
  Fbg: 217.6 mg/dL
  Hb: 12.7 g/dL
  Ht: 37.4%
  Lym: 75.4%
  MCH: 21.3 pg
  MCHC: 34%
  MCV: 62.5 fL
  Mono: 3.2%
  Neu: 19.2%
  PT: 12.6 s
  Plat: 139.7 x10_4/uL
  RBC: 598.4 x10_4/ul
  Ret: 7.9%
  WBC: 95.7 x10_2/uL
  KIDNEY_L: 1 g
  KIDNEY_R: 1 g
  KIDNEY_TOTAL: 2 g
  LIVER: 10.1 g
  A/G: 1.7
  ALP: 1080.4 IU/L
  ALT: 37.4 IU/L
  AST: 71.2 IU/L
  BUN: 12.4 mg/dL
  CRE: 0.3 mg/dL
  Ca: 10.8 mg/dL
  Cl: 102.6 meq/L
  DBIL: 0.072 mg/dL
  GLC: 189 mg/dL
  IP: 8.8 mg/dL
  K: 3.7 meq/L
  LDH: 134.2 IU/L
  Na: 140.8 meq/L
  PL: 147.6 mg/dL
  RALB: 3.4 g/dL
  TBIL: 0.1 mg/dL
  TC: 77.2 mg/dL
  TG: 65 mg/dL
  TP: 5.4 g/dL
  gamma-GTP: 1.4 IU/L
6 h
  TERMINAL_BW: 211.8 g
  APTT: 19.8 s
  Bas: 0%
  Eos: 1%
  Fbg: 219.2 mg/dL
  Hb: 13.2 g/dL
  Ht: 37.8%
  Lym: 75.6%
  MCH: 21.6 pg
  MCHC: 34.7%
  MCV: 62.2 fL
  Mono: 3.4%
  Neu: 18.8%
  PT: 12.8 s
  Plat: 127.2 x10_4/uL
  RBC: 607.6 x10_4/ul
  Ret: 8%
  WBC: 107.6 x10_2/uL
  KIDNEY_L: 1 g
  KIDNEY_R: 1 g
  KIDNEY_TOTAL: 1.9 g
  LIVER: 9.5 g
  A/G: 1.5
  ALP: 902.6 IU/L
  ALT: 38 IU/L
  AST: 70.2 IU/L
  BUN: 10.2 mg/dL
  CRE: 0.4 mg/dL
  Ca: 10.7 mg/dL
  Cl: 101.6 meq/L
  DBIL: 0.074 mg/dL
  GLC: 195.4 mg/dL
  IP: 9.7 mg/dL
  K: 3.8 meq/L
  LDH: 161.6 IU/L
  Na: 140.6 meq/L
  PL: 151.2 mg/dL
  RALB: 3.3 g/dL
  TBIL: 0.1 mg/dL
  TC: 81.8 mg/dL
  TG: 64.4 mg/dL
  TP: 5.5 g/dL
  gamma-GTP: 1.4 IU/L
9 h
  TERMINAL_BW: 206.6 g
  APTT: 17.6 s
  Bas: 0%
  Eos: 1%
  Fbg: 222.6 mg/dL
  Hb: 13.1 g/dL
  Ht: 37.9%
  Lym: 75.6%
  MCH: 21.5 pg
  MCHC: 34.6%
  MCV: 62 fL
  Mono: 3%
  Neu: 19.2%
  PT: 12.8 s
  Plat: 128 x10_4/uL
  RBC: 612 x10_4/ul
  Ret: 7.6%
  WBC: 93 x10_2/uL
  KIDNEY_L: 0.9 g
  KIDNEY_R: 0.9 g
  KIDNEY_TOTAL: 1.8 g
  LIVER: 8.7 g
  A/G: 1.6
  ALP: 842 IU/L
  ALT: 30 IU/L
  AST: 66.2 IU/L
  BUN: 12.6 mg/dL
  CRE: 0.3 mg/dL
  Ca: 10.5 mg/dL
  Cl: 102.2 meq/L
  DBIL: 0.074 mg/dL
  GLC: 189.2 mg/dL
  IP: 10 mg/dL
  K: 3.8 meq/L
  LDH: 120.4 IU/L
  Na: 140.8 meq/L
  PL: 139 mg/dL
  RALB: 3.3 g/dL
  TBIL: 0.1 mg/dL
  TC: 77.4 mg/dL
  TG: 47.8 mg/dL
  TP: 5.4 g/dL
  gamma-GTP: 1.4 IU/L
24 h
  TERMINAL_BW: 224.9 g
  APTT: 18.8 s
  Bas: 0.2%
  Eos: 0.8%
  Fbg: 218.6 mg/dL
  Hb: 13.5 g/dL
  Ht: 40%
  Lym: 81.4%
  MCH: 21.6 pg
  MCHC: 33.8%
  MCV: 63.8 fL
  Mono: 3%
  Neu: 13.2%
  PT: 12.1 s
  Plat: 130.4 x10_4/uL
  RBC: 627.6 x10_4/ul
  Ret: 7.2%
  WBC: 98.2 x10_2/uL
  KIDNEY_L: 1 g
  KIDNEY_R: 1 g
  KIDNEY_TOTAL: 2 g
  LIVER: 11 g
  A/G: 1.6
  ALP: 959.8 IU/L
  ALT: 36.8 IU/L
  AST: 64 IU/L
  BUN: 15.6 mg/dL
  CRE: 0.4 mg/dL
  Ca: 10.9 mg/dL
  Cl: 101.6 meq/L
  DBIL: 0.1 mg/dL
  GLC: 223.8 mg/dL
  IP: 7.7 mg/dL
  K: 4 meq/L
  LDH: 147.6 IU/L
  Na: 140.2 meq/L
  PL: 158.6 mg/dL
  RALB: 3.5 g/dL
  TBIL: 0.2 mg/dL
  TC: 79.8 mg/dL
  TG: 118.8 mg/dL
  TP: 5.6 g/dL
  gamma-GTP: 1.8 IU/L
